Experimental data: paper PMC13183915, “A platinum butterfly effect: small changes turn an anticancer drug into a non-toxic metalloantibiotic with in vivo efficacy” (npj Antimicrobials and Resistance, 2026)
Values after ≈ are worked out from the molar mass of the structure shown. Values joined by “and” are separate entries in the source; they are usually repeats but may differ in a detail not shown here. Identical values can stand only once.

What was measured:
S. aureus ATCC 29213 [1] = assay: Drug interaction study (chequerboard assay); assay type: cell-based
Procedure: All compounds were freshly prepared for the experiment. […] Following incubation, the fractional inhibitory concentration index (FICI) was calculated with the formula FICI = […], whereby FICA = MIC of drug A in combination/MIC of drug A alone and FICB = MIC of drug B in combination/MIC of drug B alone. A drug combination is considered synergistic when ∑FICI is ≤0.5, indifferent when ∑FICI is >0.5 to 4, and antagonistic when ∑FICI is >4.

MRSA NRS 193 = assay: Broth microdilution MIC, MRSA NRS 193; assay type: cell-based, S. aureus; conditions: Staphylococcus aureus
Procedure: (§1) The data is given in supporting information (Table S5). Before starting the experiment, a single colony was picked from MHA plate, inoculated in MHBII and incubated overnight at 37 °C with shaking for 18–24 h to get the starter culture. Antibiotic susceptibility testing was conducted according to the CLSI (Clinical & Laboratory Standards Institute) guidelines using the broth microdilution assay. 10 mg/mL stock solutions of test compounds were prepared in DMSO. Bacterial cultures were inoculated in MHBII and optical density (OD) was measured at 600 nm, followed by dilution to achieve ~10^6 CFU/mL. The compounds were tested from 64 to 0.5 mg/L in two-fold serial diluted fashion with 2.5 μL of each concentration added to well of a 96-well round bottom microtiter plate. Later, 97.5 μL of bacterial suspension was added to each well containing either test compound or appropriate controls. […] The MIC is defined as the lowest concentration of the compound at which there is absence of visible growth. For each test compound, MIC determinations were carried out independently three times using duplicate samples.

VRSA VRS 4 = assay: Broth microdilution MIC, VRSA VRS 4; assay type: cell-based, S. aureus; conditions: Staphylococcus aureus, VRSA
Procedure: as §1

[2] = system: methicillin-sensitive Staphylococcus aureus (MSSA), clinical isolate; assay: MIC assay, MSSA clinical isolate; assay type: cell-based; conditions: Staphylococcus aureus, MSSA
MRSA NRS 100 = assay: Broth microdilution MIC, MRSA NRS 100; assay type: cell-based, S. aureus; conditions: Staphylococcus aureus
Procedure: as §1

MRSA NRS 192 = assay: Broth microdilution MIC, MRSA NRS 192; assay type: cell-based, S. aureus; conditions: Staphylococcus aureus
Procedure: as §1

Bacillus subtilis MW168 = assay: MIC assay, B. subtilis MW168; assay type: cell-based; conditions: Bacillus subtilis, MW168
S. aureus ATCC 29213 [3] = assay: Post antibiotic effect (PAE); assay type: cell-based; conditions: for Time for 1 log10 increase in bacterial cfu count: 1 h exposure
Procedure: Post antibiotic effect (PAE) was determined as follows. […] Following incubation, cultures were centrifuged and washed twice with pre-warmed MHBII to remove any traces of antibiotics. Finally, cells were resuspended in drug-free MHBII and incubated further at 37 °C. Samples were taken every 1 h, serially diluted, and plated on tryptic soy agar (TSA) for enumeration of CFU. […] CFU observed immediately after the removal of the drug, and C in a similarly treated drug-free control.

[4] = system: methicillin-resistant S. aureus (MRSA) COL; assay: MIC assay, MRSA COL; assay type: cell-based, Staphylococcus aureus; conditions: Staphylococcus aureus, MRSA
MRSA NRS 129 = assay: Broth microdilution MIC, MRSA NRS 129; assay type: cell-based, S. aureus; conditions: Staphylococcus aureus
Procedure: as §1

VRSA VRS 12 = assay: Broth microdilution MIC, VRSA VRS 12; assay type: cell-based, S. aureus; conditions: Staphylococcus aureus, VRSA
Procedure: as §1

MRSA NRS 198 = assay: Broth microdilution MIC, MRSA NRS 198; assay type: cell-based, S. aureus; conditions: Staphylococcus aureus
Procedure: as §1

MRSA NRS 194 = assay: Broth microdilution MIC, MRSA NRS 194; assay type: cell-based, S. aureus; conditions: Staphylococcus aureus
Procedure: as §1

[5] = system: 36th Passage S.aureus ATCC 29213 in the presence of Pt-1; assay: microbe, parasite or virus in culture; assay type: cell-based; conditions: Staphylococcus aureus, ATCC29213
Procedure: The MICs of the passaged cultures were determined every 3 days and compared to that of wild type S. aureus ATCC 29213. MIC changes were recorded for 36 passages.

MRSA NRS 191 = assay: Broth microdilution MIC, MRSA NRS 191; assay type: cell-based, S. aureus; conditions: Staphylococcus aureus
Procedure: as §1

MRSA NRS 119 = assay: Broth microdilution MIC, MRSA NRS 119; assay type: cell-based, S. aureus; conditions: Staphylococcus aureus
Procedure: as §1

VRSA VRS 1 = assay: Broth microdilution MIC, VRSA VRS 1; assay type: cell-based, S. aureus; conditions: Staphylococcus aureus, VRSA
Procedure: as §1

MRSA NRS 186 = assay: Broth microdilution MIC, MRSA NRS 186; assay type: cell-based, S. aureus; conditions: Staphylococcus aureus
Procedure: as §1

MSSA ATCC 29213 = assay: Broth microdilution MIC, MSSA ATCC 29213; assay type: cell-based, S. aureus; conditions: Staphylococcus aureus
Procedure: as §1

CN[C@H](CC(C)C)C(=O)N[C@H]1C(=O)N[C@@H](CC(N)=O)C(=O)N[C@H]2C(=O)N[C@H]3C(=O)N[C@H](C(=O)N[C@H](C(=O)O)c4cc(O)cc(O)c4-c4cc3ccc4O)[C@H](O)c3ccc(c(Cl)c3)Oc3cc2cc(c3O[C@@H]2O[C@H](CO)[C@@H](O)[C@H](O)[C@H]2O[C@H]2C[C@](C)(N)[C@H](O)[C@H](C)O2)Oc2ccc(cc2Cl)[C@H]1O [Van, Vancomycin]
MIC (S. aureus ATCC 29213 [1]; Staphylococcus aureus, ATCC29213): 1 µg/mL
FIC B (S. aureus ATCC 29213 [1]; antibiotic in combination with Pt1 / alone): 1
FIC (FICA+FICB) (S. aureus ATCC 29213 [1]; combination with Pt1): 2
Interference (S. aureus ATCC 29213 [1]; combination with Pt1, synergistic ≤0.5, indifferent >0.5 to 4, antagonistic >4): no interaction
MIC (MRSA NRS 193): 1.34 µM (≈ 1.94 µg/mL)
MIC (VRSA VRS 4): > 43.1 µM
MIC [2]: 0.86 µM (≈ 1.25 µg/mL)
MIC (MRSA NRS 100): 1.34 µM (≈ 1.94 µg/mL)
MIC (MRSA NRS 192): 0.67 to 1.34 µM (≈ 0.971 to 1.94 µg/mL)
MIC (Bacillus subtilis MW168): < 0.22 µM
PAE (S. aureus ATCC 29213 [3]; 1x MIC): ~ 2.5 h
Time for 1 log10 increase in bacterial cfu count (S. aureus ATCC 29213 [3]; 1x MIC): ~ 5 h
PAE (S. aureus ATCC 29213 [3]; 5x MIC): ~ 2.5 h
Time for 1 log10 increase in bacterial cfu count (S. aureus ATCC 29213 [3]; 5x MIC): ~ 5 h
Time for 1 log10 increase in bacterial cfu count (S. aureus ATCC 29213 [3]; 10x MIC): ~ 5 h
PAE (S. aureus ATCC 29213 [3]; 10x MIC, listed as Vancomycin): ~ 2.5 h
PAE (S. aureus ATCC 29213 [3]; 10x MIC, listed as vancomycin): 2.5 h
MIC [4]: 0.86 µM (≈ 1.25 µg/mL)
MIC (MRSA NRS 129): 0.67 µM (≈ 0.971 µg/mL)
MIC (VRSA VRS 12): > 43.1 µM
MIC (MRSA NRS 198): 1.34 µM (≈ 1.94 µg/mL)
MIC (MRSA NRS 194): 0.67 µM (≈ 0.971 µg/mL)
MIC [5]: 1 µg/mL (≈ 0.69 µM)
MIC (MRSA NRS 191): 1.34 µM (≈ 1.94 µg/mL)
MIC (MRSA NRS 119): 1.34 µM (≈ 1.94 µg/mL)
MIC (VRSA VRS 1): > 43.1 µM
MIC (MRSA NRS 186): 0.67 µM (≈ 0.971 µg/mL)
MIC (MSSA ATCC 29213): 1 µg/mL and 0.67 µM
